Here are results for four compounds from patent US20240391903A1, “AUTOTAXIN-INHIBITORS” (UNIVERSITAET MUENSTER, priority 2021, published 2024).

Data set [1] concerns the target T1, ATX (Homo sapiens, UniProt Q13822).
T1 construct: purchased
Kind of data set: ATX activity assay (Autotaxin inhibitor test kit, fluorescent ATX substrate). The format is biochemical. The note with it: for IC50: read-out: IC50 (nM) ATX inhibition. The protocol:
(§1) A solution of 10 mM of the inhibitor to test in DMSO was received. Adding 40.5 μL of this solution to 959.5 μL DMSO gave a concentration of 405 μM. […] For a threefold dilution series 800 μL of 18% DMSO in water were dispensed in twelve 1.5 mL test tubes. 400 μL of the 75.9 μM inhibitor solution were added to the first vial and the solution was vortexed. For every dilution step 400 μL of the corresponding previous dilution step were transferred and mixed by vortexing. The obtained concentrations were 7594 nM, 2531 nM, 844 nM, 281 nM, 94 nM, 31 nM, 10 nM, 3.47 nM, 1.16 nM, 0.39 nM, 0.13 nM, 0.043 nM, 0.014 nM. The eight concentration steps from 31 nM to 0.014 nM were used in the assay.
The assay was performed according to the attached manual of the assay kit. In brief 80 μL reaction buffer containing ATX, 10 μL of the dilution series from the inhibitor and 10 μL fluorescent ATX substrate solution were mixed in a well of a 96 well plate. Cleavage of the substrate by ATX causes increase in fluorescence (excitation 485 nm, emission 528 nm), which is measured by a plate reader in 1 min intervals. The increase of fluorescence between 5 min and 15 min was used to calculate the reaction rate.
The autotaxin reaction was performed in four parallel replicates for the target inhibitor and two replicates for the positive control BrP-LPA. The slope of the increase in fluorescence was calculated by Excel using the “slope” function. The IC50 was calculated by GraphPad Prism using the nolinear regression (curve fit): “log (inhibitor) vs. response with variable slope (four parameters)”.
The autotaxin reaction was performed in three parallel replicates for the target inhibitors MJK2234001 and MJK2234002 and two replicates for MJK2134025 and two replicates for the positive control BrP-LPA. All ATX-tests were performed using the protocol as described above with minor modifications. Those modifications refer to the dilution principle:
as §1, with “The obtained concentrations were 7594 nM, 2531 nM, 844 nM, 281 nM, 94 nM, 31 nM, 10 nM, 3.47 nM, 1.16 nM, 0.39 nM, 0.13 nM, 0.043 nM, 0.014 nM.” left out, “300” for “31”, “0.14” for “0.014”, “assay. During the assay, the final concentration of the inhibitor during the reaction was 1/10th of the added inhibitor solution.” for “assay.”

Data set [2] in a line: Cytotoxicity testing in HeLa cells (methylene blue). The format is cell-based. The conditions noted are these: human, HeLa cells (DSM ACC 57), 72 hours incubation. The protocol:
Hela cells (DSM ACC 57) were grown in RPMI 1640 medium supplemented with 10 mL·L^−1 ultraglutamine 1 (CAMBREX 17-605E/U1), 550 μL·L^−1 gentamicin sulfate (50 mg·mL^−1, CAMBREX 17-518Z) and 10% heat inactivated fetal bovine serum (GIBCO Life Technologies 10270-106) at 37° C. in a 5% CO2 atmosphere in high density polyethylene flasks (NUNC 156340). Cells were pre-incubated for 48 hours in the absence of test substances. Subsequently, Hela cells were incubated with serial dilutions of the test substances in 96 well microplates for 72 hours at 37° C. in a humidified atmosphere and 5% CO2. After incubation, the cytolytic effect of compounds was analyzed relative to the negative control (DMSO) using a colorimetric assay (methylene blue). The adherent Hela cells were fixed by glutaraldehyde (MERCK 1.04239.0250) and stained with a 0.05% solution of methylene blue (SERVA 29198) for 15 min. After gentle rinsing, the stain was eluted through addition of 0.2 mL hydrochloric acid (0.33 M) to each well. The absorptions were measured at 660 nm in a SUNRISE microplate reader (TECAN). Four replicates were assayed for each substance. […] All calculations of CC50 values were performed with the software Magellan (TECAN).

The nature of data set [3]: Microsomal stability assay. The format is in vitro ADME. The conditions noted are these: human liver microsomes. The protocol: A microsomal stability assay was performed according to an internal standard procedure. Positive control compound diclofenac and three test items were freshly prepared as sub-dilutions in phosphate buffer (100 mM, pH 7.4) at concentrations of 200 μM and 20 μM, respectively. All incubations were conducted in triplicate in glass screw neck vials (1.5 mL, flat bottom, Macherey-Nagel, Düren, Germany) on a Thermomixer C (Eppendorf, Germany) at 37° C. and 1500 rpm. The incubation mixtures contained 270 μL human liver microsomes (HLM, 1.1 mg·mL^−1, UltraPool HLM 150, Corning B.V. Life Science, Amsterdam, the Netherlands), 270 μL NADP regeneration mix (1 mM NADP, 5 mM glucose-6-phosphate, 5 units·mL^−1 glucose-6-phosphate dehydrogenase and 5 mM MgCl2) and 30 μL phosphate buffer to reach a total volume of 570 μL. Negative controls were performed with heat inactivated (80° C., 30 min) HLM solution. Reactions were initiated by addition of diclofenac or the test item solution (30 μL). Aliquots of 100 μL were taken at 1, 15, 30, 60, and 90 minutes and immediately processed with 100 μL acetonitrile at 4° C. to terminate the reactions, and shaken for 2 minutes at 4° C. with 1600 rpm. The mixed samples were further transferred to 15 mm glass inserts (0.2 mL/6×31 mm, Macherey-Nagel, Düren, Germany) fitted in glass screw neck vials, and centrifuged for 15 min at 4° C. with 4000 rpm. The supernatants were withdrawn and subjected to high resolution mass spectrometry analysis without further treatment.
Samples were analyzed using a Vanquish Horizon UHPLC system (Thermo Fisher Scientific, Bremen, Germany) coupled to a Thermo Scientific QExactive HF-X Orbitrap mass spectrometer (Thermo Fisher Scientific, Bremen, Germany) using a UPLC column (ACQUITY HSS T3, Waters, 1.8 μm particle size, 2.1×50 mm dimensions). The column temperature was maintained at 25° C., and the samples were kept at 4° C. […]
Microsomal stability was determined in analogy to the method as described above, but as single determinations (FIG. 18).
(Liver microsomes are vesicles of endoplasmic reticulum, rich in cytochrome P450 enzymes.)

Data set [4] can be described thus: Pharmacokinetic evaluation in mouse plasma after oral gavage. The format is in vivo. The note with it: 30 mg/kg oral, based on mean concentrations. The method, then: MJK2134025 and GLPG 1690 were each administered as wet milled aqueous micro-suspensions at a concentration of 3 mg/g in 1% carboxymethyl cellulose and 0.5% Tween 80. Dosing of the formulations was performed at 10.0 g/kg body weight, corresponding to 30 mg/kg body weight. The food intake was measured (FIG. 19).
Prior blood collection, minicollect K3 EDTA vials were opened at room temperature to dry the EDTA in order to avoid blood dilution by the fluid content. Following oral gavage of the test formulations tail vein blood samples were taken at 15 min, 30 min, 1 h, 2 h, 4 h and 8 h. Samples were collected in dried minicollect K3 EDTA plasma vials. The blood samples (20-25 μl) were mixed and immediately cooled to 4° C. Subsequently, the samples were centrifuged at 3000 g for 5-10 min. Supernatants were collected in Eppendorf tubes and frozen and stored at −80° C. until further processing.
MJK2134025 and GLPG1690 were quantified in mouse plasma samples by LC-MS. Frozen mouse plasma samples were thawed on ice. Samples were then precipitated at a ratio of 1:10 (v:v) with 5 ng mL^−1 17:0 LPA in methanol (as an internal standard) in a 1.5 mL Eppendorf tube with microinsert (clear glass, flat bottom, 0.2 mL, 31×6 mm, LABSOLUTE, Germany). The Eppendorf tubes were mixed for 2 minutes at 4° C. and 1600 rpm in a Thermomixer C (Eppendorf, Germany). The Eppendorf tubes were centrifuged at 4° C. and 16.1 rcf for 2 minutes. The supernatant was transferred to HPLC vials for UHPLC-HRMS measurements as described in the following section. Calibration standards of MJK2134025 and GLPG1690 were prepared by adding the reference substances of MJK2134025 and GLPG1690 to blank samples (mouse plasma without substance). The calibration curve was generated at 7 concentrations and with a weighting of 1/×. The following concentrations were used for the stock solutions: 0.1, 0.5, 1, 2.5, 10, 50 and 200 μg·mL^−1 in methanol. To prepare the 200 μg·mL^−1 stock solution, 0.04 mL of 1 mg·mL^−1 MJK2134025 and 0.04 mL of 1 mg·mL^−1 GLPG1690 were mixed with 0.12 mL methanol. These stock solutions (5 μL each) were added to the blank plasma (45 μL). The sample was then mixed for 2 minutes at 4° C. and 1600 rpm in Thermomixer C (Eppendorf, Germany). Subsequent sample processing was the same as for the samples quantified. All quantifications should be considered as preliminary estimates as stable isotope-labeled reference substances were not available and individual matrix effects cannot be excluded.
All processed plasma samples were analyzed with a Vanquish Horizon UHPLC system (Thermo Fisher Scientific, Bremen, Germany) coupled to a Thermo Scientific QExactive HF-X Orbitrap mass spectrometer (Thermo Fisher Scientific, Bremen, Germany) using a UHPLC column (Luna R Omega 1.6 μm C18 100 Å, 100*2.1 mm). A solution of 5 mM ammonium formate in water containing 0.1% formic acid (eluent A) and a 5 mM solution of ammonium formate in acetonitrile: H2O (95:5, % v:v) containing 0.1% formic acid (eluent B) were used as the mobile phase. A flow rate of 0.3 mL/min was used under the following gradient conditions: 30% eluent B for 1 minute, then linear increase to 98% in 14 minutes, holding 98% of eluent B for 5 minutes, and then decreasing to 30% in 0.5 minutes, followed by isocratic holding for 3.5 minutes. The column temperature was maintained at 25° C. Samples were kept at 4° C., and 8 μL was injected into the UHPLC-MS. The QExactive HF-X Orbitrap was acquired at a resolution of 60000 at full half-width and in both positive and negative modes. The following HESI source parameters were used: capillary voltage of 3.8 kV (negative mode) and 3.5 kV (positive mode), capillary temperature of 320° C., funnel RF level 40, sheath gas pressure 49 (N2>95%), auxiliary gas 10 (N2>95%), auxiliary gas heater temperature 300° C. The automatic gain control (AGC) was set to 10E+6. A scan range of m/z 400 to 600 was selected, and the injection time was set to 200 ms. […]

The conditions of data set [5]: mouse model of stroke; cited from earlier work.

The term IC50 denotes the concentration that inhibits the measured activity by half. The CC50 is the concentration that lowers cell viability or growth by half. Read a low CC50 as harm at low concentration. Take `O=C(CSc1ccc2nn[nH]c2c1)N1CCN(C(=O)OCc2cc(C(F)(F)F)cc(C(F)(F)F)c2)CC1` [MJK2234001, 3,5-bis(trifluoromethyl)benzyl 4-(2-((1H-benzo[d][1,2,3]triazol-6-yl)thio)acetyl)piperazine-1-carboxylate]: the IC50 in data set [1] is 4 nM. Besides, it took 6200 nM to reach half-maximal cytotoxicity in data set [2] (CC50 at 72 h). The “microsomal stability / metabolism (in words)” value in data set [3] was “metabolized at a comparable speed as the experimental drug GLPG 1690”.
Broadly, the AUC is the area under the concentration-time curve, a measure of exposure. Lower therefore signals low exposure. In general, Cmax refers to the peak of the concentration-time curve. In general, Tmax refers to the time at which the peak concentration occurs. On to `CCc1nc2c(C)cc(N3CCN(CC(=O)N4CC(O)C4)CC3)cn2c1N(C)c1nc(-c2ccc(F)cc2)c(C#N)s1` [GLPG1690, reference compound], for which, in data set [4], the AUC amounted to 119 µg·h/mL, the highest concentration (Cmax) was determined as 35200 ng/mL and the time of peak concentration (Tmax) amounted to 1 h.
Regarding `O=C(CS(=O)(=O)c1ccc2nn[nH]c2c1)N1CCN(C(=O)OCc2cc(C(F)(F)F)cc(C(F)(F)F)c2)CC1` [MJK2234002, 3,5-bis(trifluoromethyl)benzyl 4-(2-((1H-benzo[d][1,2,3]triazol-6-yl)sulfonyl)acetyl)piperazine-1-carboxylate], in data set [1], the “ATX-inhibitory activity (comparison in words)” value is “almost equal ATX-inhibitory activity” and the IC50 amounted to 2 nM. This compound yielded a CC50 at 72 h in data set [2] of 67800 nM. The “microsomal stability / metabolism (in words)” value in data set [3] was “almost equally metabolically stable and superior to all other compounds tested”.
For `O=C(CCN1CCN(C(=O)OCc2cc(Cl)cc(Cl)c2)CC1)c1ccc2[nH]c(=O)oc2c1` [PF-8380], in data set [5], the “infarct size and stroke-related motor deficits” value is “significantly reduced”.
